Data as given in article PMC12277314, “Design, synthesis, and anti-inflammatory potential of PROTAC drug molecules based on fondaparinux sodium” (Frontiers in Bioengineering and Biotechnology, 2025).
“Also recorded” adds a separate entry of the source.

How the values were obtained:
[1] = system: IL-1β release, peripheral blood mononuclear cells (PBMCs); test: LPS-induced IL-1β release in PBMCs (ELISA); type: cell-based, Human; conditions: 100 nM-10 μM
Procedure: (§1) Human PBMCs were isolated from buffy coats (procured from Uppsala University Hospital, Sweden) using Ficoll density gradient centrifugation and stored at −150°C. Thawed PBMCs were cultured in Dulbecco’s Modified Eagle Medium (DMEM) supplemented with 10% fetal bovine serum (FBS) and 5% PeSt in a CO2 incubator. Cells were seeded in 24-well plates (0.5–1 × 10^6 cells/well in 1 mL medium). PROTAC analogs and FS were added at 10 μM, 1 μM, and 100 nM. Two setups were employed: one receiving only the compounds, and another in which LPS (20 ng/mL) was added 2 h after compound treatment. After 24 h, supernatants were collected for cytokine quantification by ELISA.
(§2) All quantitative data are presented as mean ± SD. Sample size for each assay was n = 3 biological replicates. For multi-group comparisons, one-way ANOVA followed by Tukey’s post hoc test was used; for two-group comparisons, two-tailed, unpaired Student’s t-test was applied. P < 0.05 was considered significant.

IL-6 = IL-6 (Homo sapiens, UniProt P05231); test: SPR binding to immobilized IL-6; conditions: CM5 chip, 1:1 binding model, 0.38-12.50 µM analyte
Procedure: (§3) SPR was used to evaluate the binding affinity between the PROTAC molecules and the target proteins. Target proteins CCL5 and IL-6 were immobilized on a CM5 sensor chip via amine coupling, with unreacted sites blocked using ethanolamine (pH 8.5). The PROTAC molecules were injected at concentrations ranging from 0.38 µM to 12.50 µM in PBS-P running buffer (0.02 M phosphate buffer, 137 mM NaCl, 2.7 mM KCl, 0.2% DMSO, 0.05% P20, pH 7.4). Each injection lasted 120 s (association phase) followed by a 300-s dissociation phase at a flow rate of 30 μL/min. Data were analyzed using Biacore Insight Evaluation Software with a 1:1 binding model to determine KD values. In addition to the 1:1 Langmuir model, we tested bivalent-analyte and heterogeneous-ligand models. Both alternatives yielded substantially larger residuals and poorer overall fits, confirming the 1:1 Langmuir model as the most suitable for our sensorgram data.
(§4) To comprehensively assess the biological functionality of the PROTAC molecules, binding kinetics with the target proteins CCL5 and IL-6 were investigated using the Biacore 8K^+ system. CCL5 and IL-6—key inflammatory mediators—were immobilized on a CM5 sensor chip (9000 RU) via amine coupling, and kinetic parameters were calculated using a 1:1 binding model.

[2] = system: inflammatory cytokines (IL-1β and TNF-α), PBMCs; test: LPS-induced cytokine secretion in PBMCs, cytokines overall; type: cell-based, Human; conditions: 100 nM-10 μM
Procedure: as §1, §2

CCL5 = biological target: T1, CCL5 (Homo sapiens, UniProt P13501); test: SPR binding to immobilized CCL5; conditions: for Kd: CM5 chip, 1:1 binding model, 0.38-12.50 µM analyte
T1 sequence (P13501 24-91): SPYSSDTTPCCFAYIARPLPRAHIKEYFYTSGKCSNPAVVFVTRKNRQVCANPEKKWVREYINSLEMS
Procedure: as §3, §4

[3] = system: TNF-α release, peripheral blood mononuclear cells (PBMCs); test: LPS-induced TNF-α release in PBMCs (ELISA); type: cell-based, Human; conditions: 100 nM-10 μM
Procedure: as §1, §2

[4] = system: colonic TNF-α and IL-1β levels; parameters: method as in Xu et al., 2024; conditions: murine colitis model; ref Xu et al., 2024; cited from earlier work

Sequence of IL-6 (P05231 30-212, species assumed): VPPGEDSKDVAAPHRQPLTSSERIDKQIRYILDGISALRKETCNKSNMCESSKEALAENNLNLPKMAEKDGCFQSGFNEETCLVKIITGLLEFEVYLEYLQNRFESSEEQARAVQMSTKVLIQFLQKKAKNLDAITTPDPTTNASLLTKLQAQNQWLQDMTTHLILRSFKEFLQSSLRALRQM

Structure (SMILES)	Kd (IL-6)	binding to CCL5 (in words) (CCL5; negative control)	Kd (CCL5)	effect on LPS-induced IL-1β release (in words) [1]	effect on LPS-induced cytokine secretion (in words) [2]	effect on LPS-induced TNF-α (in words) [3]	colonic TNF-α and IL-1β levels [4]
CO[C@H]1O[C@H](COS(=O)(=O)O)[C@@H](O[C@@H]2O[C@@H](C(=O)NCCCCCNc3cccc4c3C(=O)N(C3CCC(=O)NC3=O)C4=O)[C@@H](OC3O[C@H](COS(=O)(=O)O)[C@@H](O[C@@H]4O[C@H](C(=O)NCCCCCNc5cccc6c5C(=O)N(C5CCC(=O)NC5=O)C6=O)[C@@H](O[C@H]5O[C@H](COS(=O)(=O)O)[C@@H](O)[C@H](O)[C@H]5NS(=O)(=O)O)[C@H](O)[C@H]4O)[C@H](OS(=O)(=O)O)[C@H]3NS(=O)(=O)O)[C@H](O)[C@H]2OS(=O)(=O)O)[C@H](O)[C@H]1NS(=O)(=O)O (some centres unmarked) [Product 10]	1.54 µM	–	11.3 µM	significantly inhibited	significant inhibitory effect; also recorded: concentration-dependent suppression	–	–
O=C(/C=C/C(=O)Nc1ccc(NC(=O)c2ccc([N+](=O)[O-])o2)cc1)NCCCCCCNc1cccc2c1C(=O)N(C1CCC(=O)NC1=O)C2=O (centres unmarked) [SP23]	–	–	–	–	–	–	reduced

Further lines, with some results ahead:

Kd (IL-6)	binding to CCL5 (in words) (CCL5; negative control)	Kd (CCL5)	Structure (SMILES)	effect on LPS-induced IL-1β release (in words) [1]	effect on LPS-induced cytokine secretion (in words) [2]	effect on LPS-induced TNF-α (in words) [3]	colonic TNF-α and IL-1β levels [4]
13.5 µM	no binding	–	CO[C@H]1O[C@H](COS(=O)(=O)O)[C@@H](O[C@@H]2O[C@@H](C(=O)O)[C@@H](O[C@H]3O[C@H](COS(=O)(=O)O)[C@@H](O[C@@H]4O[C@H](C(=O)O)[C@@H](O[C@H]5O[C@H](COS(=O)(=O)O)[C@@H](O)[C@H](O)[C@H]5NS(=O)(=O)O)[C@H](O)[C@H]4O)[C@H](OS(=O)(=O)O)[C@H]3NS(=O)(=O)O)[C@H](O)[C@H]2OS(=O)(=O)O)[C@H](O)[C@H]1NS(=O)(=O)O [FS, Fondaparinux Sodium]	no effect	did not elicit significant changes	–	–
8.27 µM	–	4.75 µM	CO[C@H]1O[C@H](COS(=O)(=O)O)[C@@H](O[C@@H]2O[C@@H](C(=O)NCCCCCCCNc3cccc4c3C(=O)N(C3CCC(=O)NC3=O)C4=O)[C@@H](OC3O[C@H](COS(=O)(=O)O)[C@@H](O[C@@H]4O[C@H](C(=O)NCCCCCCCNc5cccc6c5C(=O)N(C5CCC(=O)NC5=O)C6=O)[C@@H](O[C@H]5O[C@H](COS(=O)(=O)O)[C@@H](O)[C@H](O)[C@H]5NS(=O)(=O)O)[C@H](O)[C@H]4O)[C@H](OS(=O)(=O)O)[C@H]3NS(=O)(=O)O)[C@H](O)[C@H]2OS(=O)(=O)O)[C@H](O)[C@H]1NS(=O)(=O)O (some centres unmarked) [Product 6]	significantly inhibited	significant inhibition; also recorded: concentration-dependent suppression	–	–
–	–	9.48 µM	CO[C@H]1O[C@H](COS(=O)(=O)O)[C@@H](O[C@@H]2O[C@@H](C(=O)NCCCCCc3cccc4c3CN(C3CCC(=O)NC3=O)C4=O)[C@@H](OC3O[C@H](COS(=O)(=O)O)[C@@H](O[C@@H]4O[C@H](C(=O)NCCCCCc5cccc6c5CN(C5CCC(=O)NC5=O)C6=O)[C@@H](O[C@H]5O[C@H](COS(=O)(=O)O)[C@@H](O)[C@H](O)[C@H]5NS(=O)(=O)O)[C@H](O)[C@H]4O)[C@H](OS(=O)(=O)O)[C@H]3NS(=O)(=O)O)[C@H](O)[C@H]2OS(=O)(=O)O)[C@H](O)[C@H]1NS(=O)(=O)O (some centres unmarked) [Product 8]	no significant effect; also recorded: not statistically significant	did not elicit significant changes; also recorded: limited anti-inflammatory activity	mild inhibition; also recorded: minimal	–
